Tests used:
[1] = Antiproliferative activity against human MCF7 cells assessed as reduction in cell viability after 48 hrs by MTT assay; type: functional, cell-based; settings: MCF7, 48 h
[2] = Antiproliferative activity against human PANC1 cells assessed as reduction in cell viability after 48 hrs by MTT assay; type: functional, cell-based; settings: PANC-1, 48 h
[3] = Antiproliferative activity against human A549 cells assessed as reduction in cell viability after 48 hrs by MTT assay; type: functional, cell-based; settings: A549, 48 h
Homo sapiens = species: Homo sapiens; test: Inhibition of His-tagged full length Hsp90/GST-tagged Cdc37 middle domain (unknown origin) interaction at 50 uM after 1 hr by TR-FRET assay relative to control
[4] = Permeability of the compound at pH 7.4 by PAMPA-based pION assay; type: ADME; settings: read-out: permeability
[5] = Antiproliferative activity against paclitaxel-resistant human A549 cells assessed as reduction in cell viability after 48 hrs by MTT assay; type: functional, cell-based; settings: A549, 48 h
[6] = Inhibition of His-tagged full length Hsp90/GST-tagged Cdc37 middle domain (unknown origin) interaction after 1 hr by TR-FRET assay; design: species or system Homo sapiens

Q: Which IC50 [1] does the source give for CC(=O)NCCNC(=O)[C@]1(C)CC[C@]2(C)CC[C@]3(C)C4=CC=C5C(=CC(=O)C(O)=C5C)[C@]4(C)CC[C@@]3(C)[C@@H]2C1 here?
A: Its IC50 is 2.26 µM.

Q: What about the IC50 [2] of the same compound?
A: The IC50 was 3 µM.

Q: What about the IC50 [3] of the same compound?
A: Its IC50 is 3.12 µM.

Q: And the inhibition (Homo sapiens)?
A: The inhibition was 70.5%.

Q: Which IC50 [1] does the source give for CC1=C(O)C(=O)C=C2C1=CC=C1[C@@]2(C)CC[C@@]2(C)[C@@H]3C[C@](C)(C(=O)NCCN(C(C)C)C(C)C)CC[C@]3(C)CC[C@]12C here?
A: Its IC50 is 1.26 µM.

Q: What about the IC50 [2] of the same compound?
A: Its IC50 is 1.05 µM.

Q: What about the Papp [4] of the same compound?
A: Its Papp is 35.2 ×10⁻⁶ cm/s.

Q: And the IC50 [3]?
A: Its IC50 is 0.8 µM.

Q: What about the inhibition (Homo sapiens) of the same compound?
A: The inhibition was 81.6%.

Q: For CC1=C(O)C(=O)C=C2C1=CC=C1[C@@]2(C)CC[C@@]2(C)[C@@H]3C[C@](C)(C(=O)N4CCCC4)CC[C@]3(C)CC[C@]12C, which IC50 [1] is on record?
A: Its IC50 is 1.81 µM.

Q: What about the IC50 [2] of the same compound?
A: Its IC50 is 2.11 µM.

Q: And the IC50 [3]?
A: The IC50 was 2.85 µM.

Q: And the inhibition (Homo sapiens)?
A: Its inhibition is 56.4%.

Q: With CC1=C(O)C(=O)C=C2C1=CC=C1[C@@]2(C)CC[C@@]2(C)[C@@H]3C[C@](C)(C(=O)NCCN4CCOCC4)CC[C@]3(C)CC[C@]12C as the compound, how does the IC50 [1] read?
A: Its IC50 is 1.34 µM.

Q: And the IC50 [2]?
A: The IC50 was 1.35 µM.

Q: And the Papp [4]?
A: The Papp was 11.4 ×10⁻⁶ cm/s.

Q: What about the IC50 [3] of the same compound?
A: Its IC50 is 1.27 µM.

Q: What about the inhibition (Homo sapiens) of the same compound?
A: The inhibition was 77.2%.

Q: With CC1=C(O)C(=O)C=C2C1=CC=C1[C@@]2(C)CC[C@@]2(C)[C@@H]3C[C@](C)(C(=O)NCCCn4ccnc4)CC[C@]3(C)CC[C@]12C as the compound, how does the IC50 [1] read?
A: Its IC50 is 1.84 µM.

Q: What about the IC50 [2] of the same compound?
A: Its IC50 is 1.53 µM.

Q: And the Papp [4]?
A: Its Papp is 0.6 ×10⁻⁶ cm/s.

Q: What about the IC50 [3] of the same compound?
A: The IC50 was 3.37 µM.

Q: What about the inhibition (Homo sapiens) of the same compound?
A: The inhibition was 71.7%.

Q: What does the source list for CCNC(=O)[C@]1(C)CC[C@]2(C)CC[C@]3(C)C4=CC=C5C(=CC(=O)C(O)=C5C)[C@]4(C)CC[C@@]3(C)[C@@H]2C1?
A: IC50 [1]: 1.43 µM; IC50 [2]: 1.82 µM; IC50 [3]: 2.08 µM; inhibition (Homo sapiens): 69%

Q: What does the source list for CC1=C(O)C(=O)C=C2C1=CC=C1[C@@]2(C)CC[C@@]2(C)[C@@H]3C[C@](C)(C(=O)O)CC[C@]3(C)CC[C@]12C [CELASTROL]?
A: IC50 [1]: 2.13 µM; IC50 [2]: 2.48 µM; Papp [4]: 13.3 ×10⁻⁶ cm/s; IC50 [5]: 2.01 µM; IC50 [6]: 6.49 µM; IC50 [3]: 2.02 µM; inhibition (Homo sapiens): 91.8%

Q: For CC1=C(O)C(=O)C=C2C1=CC=C1[C@@]2(C)CC[C@@]2(C)[C@@H]3C[C@](C)(C(=O)NCCS(C)(=O)=O)CC[C@]3(C)CC[C@]12C, which IC50 [1] is on record?
A: Its IC50 is 1.3 µM.

Q: And the IC50 [2]?
A: Its IC50 is 1.2 µM.

Q: What about the IC50 [3] of the same compound?
A: Its IC50 is 2.41 µM.

Q: What about the inhibition (Homo sapiens) of the same compound?
A: Its inhibition is 69.8%.

Q: Which IC50 [1] does the source give for CCCOC(=O)[C@]1(C)CC[C@]2(C)CC[C@]3(C)C4=CC=C5C(=CC(=O)C(O)=C5C)[C@]4(C)CC[C@@]3(C)[C@@H]2C1 here?
A: Its IC50 is 1.52 µM.

Q: And the IC50 [2]?
A: Its IC50 is 1.31 µM.

Q: And the IC50 [3]?
A: The IC50 was 1.74 µM.

Q: And the inhibition (Homo sapiens)?
A: Its inhibition is 44.9%.

Q: Which IC50 [1] does the source give for CC1=C(O)C(=O)C=C2C1=CC=C1[C@@]2(C)CC[C@@]2(C)[C@@H]3C[C@](C)(C(=O)NCCN4CCCCC4)CC[C@]3(C)CC[C@]12C here?
A: The IC50 was 1.18 µM.

Q: What about the IC50 [2] of the same compound?
A: The IC50 was 1.25 µM.

Q: What about the Papp [4] of the same compound?
A: Its Papp is 18.1 ×10⁻⁶ cm/s.

Q: What about the IC50 [3] of the same compound?
A: The IC50 was 0.84 µM.

Q: And the inhibition (Homo sapiens)?
A: Its inhibition is 75.7%.

Q: With CC1=C(O)C(=O)C=C2C1=CC=C1[C@@]2(C)CC[C@@]2(C)[C@@H]3C[C@](C)(C(=O)OC(C)C)CC[C@]3(C)CC[C@]12C as the compound, how does the IC50 [1] read?
A: The IC50 was 1.32 µM.

Q: And the IC50 [2]?
A: Its IC50 is 1.36 µM.

Q: What about the IC50 [3] of the same compound?
A: Its IC50 is 2.58 µM.

Q: What about the inhibition (Homo sapiens) of the same compound?
A: Its inhibition is 51.5%.

Q: With CC1=C(O)C(=O)C=C2C1=CC=C1[C@@]2(C)CC[C@@]2(C)[C@@H]3C[C@](C)(C(=O)NCCN4CCCC4)CC[C@]3(C)CC[C@]12C as the compound, how does the IC50 [1] read?
A: Its IC50 is 1.1 µM.

Q: What about the IC50 [2] of the same compound?
A: The IC50 was 1.03 µM.

Q: What about the Papp [4] of the same compound?
A: Its Papp is 23 ×10⁻⁶ cm/s.

Q: What about the IC50 [6] of the same compound?
A: The IC50 was 6.5 µM.

Q: What about the IC50 [3] of the same compound?
A: Its IC50 is 0.67 µM.

Q: What about the inhibition (Homo sapiens) of the same compound?
A: The inhibition was 89.2%.

Source: ChEMBL document CHEMBL3860070, “Optimization and biological evaluation of celastrol derivatives as Hsp90-Cdc37 interaction disruptors with improved druglike properties” (Bioorg Med Chem, 2016)
